# Results from US10849955B2, “Methods of treating pancreatic cancer using GPCR antagonists” (City of Hope, priority 2016, dated 2020).
# How the values were obtained:
# Assay type in all cases: cell-based, human
# EGFR = EGFR phosphorylation in PANC-1 cells, Western blot kinetic study; conditions: 10 nM agonist(s), pEGFR over total EGFR
# Protocol: To prepare protein extracts, cells were pelleted by centrifugation and washed twice in PBS. The pellet was resuspended in lysis buffer (50 mM Tris, pH 8.0, 150 mM sodium chloride, 1% NP-40, supplemented Protease and Phosphatase Inhibitor Mini Tablets, Pierce) and incubated on a rotator for 30 min at 4° C. Subsequently, the cells were pelleted by centrifugation at 10,000 rpm for 20 min at 4° C. The protein lysate (supernatant) was used immediately or stored at −80° C. Membrane proteins were isolated using the Mem-Per Plus Membrane protein isolation kit (Thermo Scientific) per the manufacturer′ instructions. Briefly, adherent cells were scraped and centrifuged for 5 min at 300×g. The cell pellet was washed 2 times using Cell Wash solution and centrifuged for 5 min at 300×g. The cell pellet was permeabilized using Permeabilization Buffer and incubated at 4° C. for 10 mins on a rotator. […] Proteins were detected with Pierce ECL detection reagents (Pierce). […]
# Cells were treated with 10 nM Dermorphin [Y(D-ALA)FGYPKC; Genscript], 10 nM (1R,1′S,3′R/1R,1′R,3′S)-L-054,264 (Tocris) individually and in combination for the indicated times. […] Blots were imaged on film and quantified using the Image Lab software (Biorad). ERK1/2 and EGFR phosphorylation at each time point was quantified and normalized by calculating the ratio of pERK1/2 over total ERK1/2 and pEGFR over total EGFR in each lane. […]
# pERK1/2 = pERK1/2 localization in PANC-1 cells, confocal imaging; conditions: 3 or 30 min, 10 nM dermorphin, 10 nM L-054,264, 100 ng/ml CXCL12
# Protocol: For pERK1/2 activation studies, after 24 hours, normal pancreatic and/or PANC-1 cells were treated with 1) 10 nM dermorphin; 2) 10 nM L-054,264; 3) 10 nM dermorphin plus 10 nM L-054,264; 4) 100 ng/ml CXCL12; and 5) 10 nM dermorphin plus 100 ng/ml CXCL12 for either 3 min or 30 min as indicated. PANC-1 NS, PANC-1/β arreatin2, PANC-1/SSTR2si and PANC-1/MORsi cells were treated with 10 nM dermorphin with 10 nM L-054,264 for 3 min. Following treatment, cells were washed and fixed with 4% (w/v) paraformaldehyde and 0.2% (w/v) glutaraldehyde for 30 min and inactivated with 25 mM glycine for 10 min. Cells were then washed in PBS and subsequently permeabilized on ice using 0.5% tween-20 in PBS for 20 min similarly as before (Smith et al., 2004). Cells were washed with PBS and blocked with 5% BSA in PBS for 10 min. Cells were incubated for 1 h at 37° C. with 2 μg/mL of primary antibody (anti-pERK1/2). Subsequently, cells were washed 3 times with 0.5% tween-20 in PBS for 5 min each and incubated with 2 μg/mL of Alexa Fluor 647 labeled secondary antibody in PB for 45 min. Following incubation with secondary antibody, cells were washed 3 times with 0.5% tween-20 in PBS. Cells were covered with mounting media DAPI (Vector Labs), mounted on slides, and imaged on a Zeiss LSM700 confocal microscope.
# [1] = system: N-cadherin, MMP-9, vimentin and E-cadherin; experiment: EMT marker mRNA levels in PANC-1 cells, RT-PCR; conditions: 10 nM dermorphin, 100 ng/mL CXCL12
# Protocol: RNA was isolated using the RNAeasy Plus Kit (Qiagen) according to the manufacturer's protocol. For the EMT markers assay, cells were first treated with appropriate agonists where indicated for 24 hours followed by cell lysis and RNA extraction. cDNA was synthesized from 2 μg RNA using Bioline cDNA synthesis kit according to the manufacturer's protocol. The synthesized cDNAs were used as templates for PCRs with primers as described below. RT-PCR was performed using 5×RT Mastermix (Applied Biosystems). The reactions were analyzed on the CFX96 Real time instrument (Biorad). Themocycler conditions were 95° C. for 10 min for 1 cycle, 95° C. for 15 sec and 60° C. for 1 min for 50 cycles. GAPDH was used as an internal control. For GPCR assays, COS-7 cells were used as negative and MCF-7 cells as positive controls. For EMT marker assays, fold change was calculated as a ratio of treated to untreated control.
Substance,EGFR phosphorylation (EGFR),pERK1/2 localization (pERK1/2),"mRNA levels of 4 markers (N-cadherin, E-cadherin, MMP-9, vimentin) [1]"
"(1R,1′S,3′R/1R,1′R,3′S)-L-054,264",induced modest EGFR phosphorylation,,
CXCL12: selective CXCR4 agonist,,high levels of nuclear pERK1/2,did not have a significant effect
